Reference: PubChem BioAssay (NCI)
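Briefly, cells in 96-well plates were exposed to five compound concentrations for 48 h, and endpoints were estimated by linear interpolation. At the GI50, growth is halved. At the TGI there is no net growth.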

Columns and labels:
Assay in all cases: NCI anticancer screen, dose series, 48 h
786-0 renal = system: 786-0 renal
EKVX NSCLC = system: EKVX NSCLC
HL-60(TB) leukemia = system: HL-60(TB) leukemia
HT29 colon = system: HT29 colon
MCF7 breast = system: MCF7 breast
OVCAR-3 ovarian = system: OVCAR-3 ovarian
SF-295 CNS = system: SF-295 CNS
SK-MEL-2 melanoma = system: SK-MEL-2 melanoma
UACC-257 melanoma = system: UACC-257 melanoma
RPMI-8226 leukemia = system: RPMI-8226 leukemia

| SMILES | TGI (786-0 renal) [µM] | TGI (EKVX NSCLC) [µM] | TGI (HL-60(TB) leukemia) [µM] | TGI (HT29 colon) [µM] | TGI (MCF7 breast) [µM] | TGI (OVCAR-3 ovarian) [µM] | TGI (SF-295 CNS) [µM] | TGI (SK-MEL-2 melanoma) [µM] | TGI (UACC-257 melanoma) [µM] | TGI (RPMI-8226 leukemia) [µM] | GI50 (HL-60(TB) leukemia) [µM] | GI50 (OVCAR-3 ovarian) [µM] | GI50 (SF-295 CNS) [µM] | GI50 (SK-MEL-2 melanoma) [µM] |
| --- | --- | --- | --- | --- | --- | --- | --- | --- | --- | --- | --- | --- | --- | --- |
| CC(C)Nc1[nH]c(C(=O)c2ccccc2)c(N)c1C(=S)Nc1ccccc1 | > 100 | > 100 | > 100 | 91.3 | > 100 | > 100 | > 100 | 52.1 | 46.7 | – | – | – | – | – |
| ClC(Cl)(Cl)C1CCOC1n1nc2ccccc2n1 (configuration not stated) | > 100 | > 100 | > 100 | > 100 | > 100 | > 100 | > 100 | > 100 | > 100 | – | – | – | – | – |
| N#Cc1ncn(-c2ccccc2)c1N | > 100 | > 100 | > 100 | > 100 | > 100 | > 100 | > 100 | > 100 | > 100 | > 100 | – | – | – | – |
| Cc1cn(CC2=NCCN2)c(=O)[nH]c1=O | > 100 | > 100 | > 100 | > 100 | > 100 | – | > 100 | > 100 | > 100 | > 100 | – | – | – | – |
| COc1cc2c(cc1OC)C1Cc3ccccc3CCN1CC2 (configuration not stated) | > 100 | > 100 | > 100 | > 100 | > 100 | > 100 | > 100 | > 100 | > 100 | > 100 | – | – | – | – |
| COc1cc2cc(Oc3ccc(NC(=O)Nc4ccc(F)c(C(F)(F)F)c4)cc3)c(C)nc2cc1OCCN1CCCCC1 | – | – | 3.81 | – | – | 3.44 | 3.29 | 3.45 | – | – | 1.91 | 1.87 | 1.8 | 1.84 |
| CSc1c(C(=O)Nc2ccc(C)cc2)c(N)nn1-c1ccccc1 | 45 | > 100 | > 100 | > 100 | > 100 | > 100 | > 100 | > 100 | > 100 | > 100 | – | – | – | – |
| Nc1nc(Cl)c(C=O)c(NCC2(CO)CC(CCc3ccccc3)C2)n1 (configuration not stated) | 69.5 | 14.1 | 3.34 | 27.7 | 51.8 | 24.4 | 27 | 19.2 | 21.3 | 35.8 | – | – | – | – |
| N#C/C(=C1\N=C(c2ccccc2O)Oc2ccccc21)c1ccc([N+](=O)[O-])cc1 | > 100 | > 100 | > 100 | > 100 | > 100 | > 100 | > 100 | > 100 | > 100 | > 100 | – | – | – | – |
| Clc1ccccc1/C=C/c1nsc(/C=C/c2ccccc2Cl)n1 | 39.1 | > 100 | 52.5 | > 100 | > 100 | > 100 | > 100 | > 100 | 64.1 | 84.5 | – | – | – | – |
| COc1ncnc2c1cnn2Cc1cn(COCC(O)CO)nn1 (configuration not stated) | > 100 | > 100 | > 100 | > 100 | > 100 | > 100 | > 100 | > 100 | > 100 | > 100 | – | – | – | – |
| CC(C)(C)c1cc(C(=O)/C=C/c2ccc(O)c(O)c2O)cc(C(C)(C)C)c1O | 28.8 | 54 | 5.82 | 27.7 | 27.2 | > 100 | 27.8 | 19.2 | 10.6 | 4.4 | – | – | – | – |
| O=C(c1ccc(Cl)cc1Cl)N(Cc1cccnc1)C(=S)N(Cc1cccnc1)C(=O)c1ccc(Cl)cc1Cl | 5.34 | 30.2 | 15.3 | 5.52 | 12.3 | 10.1 | 41.5 | 13.7 | 23.5 | > 100 | – | – | – | – |
| CCOC(=O)c1ncoc1[C@H]1COC(C)(C)O1 | – | > 100 | > 100 | > 100 | – | > 100 | > 100 | > 100 | > 100 | > 100 | – | – | – | – |
| O=C1Nc2cccc3ncn(c23)C2=C1CCCC2 | > 100 | > 100 | > 100 | – | – | – | > 100 | > 100 | > 100 | > 100 | – | – | – | – |
| Cc1nc2c(o1)C(=O)c1ccccc1C2=NC1CCCCC1N (configuration not stated) | 3.43 | 2.92 | 0.749 | 5.33 | 0.9 | 1.66 | – | 2.53 | 0.321 | 4.2 | – | – | – | – |
| O=C(O)C(Cc1ccc2c(c1)CCC2)(Cc1ccc2c(c1)CCC2)C(=O)O | > 100 | > 100 | > 100 | > 100 | > 100 | > 100 | > 100 | > 100 | > 100 | > 100 | – | – | – | – |
| CC1=C2C(=O)O[C@@H](c3ccoc3)[C@]2(C)CCC1=O | > 100 | > 100 | – | – | > 100 | > 100 | > 100 | > 100 | > 100 | > 100 | – | – | – | – |
| O=C1C=C(N2CCCC2)C=C(N2CCCC2)C1 | > 100 | > 100 | > 100 | > 100 | – | > 100 | > 100 | > 100 | > 100 | > 100 | – | – | – | – |
| CNNC1=NS(=O)(=O)c2cc(C)c(Cl)cc2S1 | > 10 | > 10 | > 10 | > 10 | – | > 10 | > 10 | > 10 | > 10 | > 10 | – | – | – | – |
| CCOc1ccc2ccccc2c1NC1=NCCO1 | > 100 | > 100 | 49.6 | > 100 | > 100 | – | 65.5 | – | > 100 | 59.4 | – | – | – | – |
| O=C(O)C(CS)NCc1c2ccccc2[n+]([O-])c2ccccc12 (configuration not stated) | > 100 | > 100 | 57 | > 100 | – | > 100 | > 100 | > 100 | > 100 | 92.4 | – | – | – | – |
